Assay results taken from US6723753B2, “Substituted n-benzyl-n-phenyl aminoalcohol compounds useful for inhibiting cholesteryl ester transfer protein activity” (Pharmacia Corporation, priority 2002, dated 2004).

Target: T1, CETP (Homo sapiens, UniProt P11597)
T1 sequence (P11597 18-493): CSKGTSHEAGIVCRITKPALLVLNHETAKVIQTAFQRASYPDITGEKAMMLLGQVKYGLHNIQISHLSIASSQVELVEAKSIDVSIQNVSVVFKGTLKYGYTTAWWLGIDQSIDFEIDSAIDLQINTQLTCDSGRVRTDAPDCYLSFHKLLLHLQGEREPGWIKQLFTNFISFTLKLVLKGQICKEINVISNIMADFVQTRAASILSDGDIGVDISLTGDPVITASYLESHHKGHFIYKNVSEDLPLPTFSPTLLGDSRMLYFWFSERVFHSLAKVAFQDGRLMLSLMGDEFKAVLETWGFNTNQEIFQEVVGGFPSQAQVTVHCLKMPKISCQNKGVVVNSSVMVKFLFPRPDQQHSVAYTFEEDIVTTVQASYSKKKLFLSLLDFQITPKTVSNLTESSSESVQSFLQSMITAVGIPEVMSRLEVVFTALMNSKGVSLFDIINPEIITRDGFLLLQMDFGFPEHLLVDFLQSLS
Experiment: Assay of CETP Inhibition using Purified Components (Reconstituted Buffer Assay)
Type: biochemical
Set-up: made in house; host or cells: CHO cells (serum-free conditioned medium)
Conditions: Inhibition of CETP activity in reconstituted buffer assay; transfer of [3H]CE from HDL to LDL; read-out: IC50
Procedure, shortened: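 Transfer of radiolabeled cholesteryl ester from HDL to LDL was run for 2 h at 37 °C in pH 7.4 Tris buffer with 1% BSA, using purified CHO-expressed human CETP. Precipitated LDL radioactivity, measured by scintillation after dextran sulfate/MgCl2 precipitation and filtration, yielded the IC50.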

Structure (SMILES)	IC50 [µM]
O=[N+]([O-])c1cccc(CN(CC(O)C(F)(F)F)c2cccc(OC(F)(F)F)c2)c1 (centres unmarked) [Example 335]	40
OC(CN(CCCCOc1ccccc1)c1cccc(OC(F)(F)F)c1)C(F)(F)F (centres unmarked) [Example 336]	> 100
OC(CN(CCCc1ccccc1)c1cccc(OC(F)(F)F)c1)C(F)(F)F (centres unmarked) [Example 337]	> 100
COc1ccc(CCCN(CC(O)C(F)(F)F)c2cccc(OC(F)(F)F)c2)cc1 (centres unmarked) [Example 338]	> 100
COC(=O)c1ccc(CN(CC(O)C(F)(F)F)c2cccc(OC(F)(F)F)c2)cc1 (centres unmarked) [Example 341]	> 100
O=C1c2ccccc2C(=O)c2cc(CN(CC(O)C(F)(F)F)c3cccc(OC(F)(F)F)c3)ccc21 (centres unmarked) [Example 342]	70
OC(CN(CCc1c[nH]c2ccccc12)c1cccc(OC(F)(F)F)c1)C(F)(F)F (centres unmarked) [Example 344]	> 100
OC(CN(Cc1cccnc1)c1cccc(OC(F)(F)F)c1)C(F)(F)F (centres unmarked) [Example 345]	45
COc1ccc(CN(CC(O)C(F)(F)F)c2cccc(OC(F)(F)F)c2)cc1 (centres unmarked) [Example 347]	15
COc1cccc(CN(CC(O)C(F)(F)F)c2cccc(OC(F)(F)F)c2)c1 (centres unmarked) [Example 348]	35
OC(CN(Cc1ccncc1)c1cccc(OC(F)(F)F)c1)C(F)(F)F (centres unmarked) [Example 349]	> 100
OC(CN(CC=Cc1ccccc1)c1cccc(OC(F)(F)F)c1)C(F)(F)F (centres unmarked) [Example 352]	35
COc1cc(OC)cc(C(=O)N(CC(O)C(F)(F)F)c2cccc(OC(F)(F)F)c2)c1 (centres unmarked) [Example 353]	70
COc1cc(OC)c(OC)cc1CN(CC(O)C(F)(F)F)c1cccc(OC(F)(F)F)c1 (centres unmarked) [Example 354]	> 100
COc1ccc(OC)c(CN(CC(O)C(F)(F)F)c2cccc(OC(F)(F)F)c2)c1 (centres unmarked) [Example 355]	75
O=C(O)c1cccc(CN(CC(O)C(F)(F)F)c2cccc(OC(F)(F)F)c2)c1 (centres unmarked) [Example 356]	> 100
Oc1cccc(CN(CC(O)C(F)(F)F)c2cccc(OC(F)(F)F)c2)c1 (centres unmarked) [Example 357]	40
Oc1ccc(O)c(CN(CC(O)C(F)(F)F)c2cccc(OC(F)(F)F)c2)c1 (centres unmarked) [Example 358]	> 100
Oc1cc(CN(CC(O)C(F)(F)F)c2cccc(OC(F)(F)F)c2)cc(O)c1O (centres unmarked) [Example 359]	> 100
Oc1cc(O)cc(CN(CC(O)C(F)(F)F)c2cccc(OC(F)(F)F)c2)c1 (centres unmarked) [Example 360]	> 100
OC(CN(Cc1ccc2ccccc2n1)c1cccc(OC(F)(F)F)c1)C(F)(F)F (centres unmarked) [Example 362]	45

Structure (SMILES)	IC50 [µM]
OC(CN(Cc1ccccn1)c1cccc(OC(F)(F)F)c1)C(F)(F)F (centres unmarked) [Example 363]	40
OC(CN(Cc1nc2ccccc2[nH]1)c1cccc(OC(F)(F)F)c1)C(F)(F)F (centres unmarked) [Example 364]	> 100
OC(CN(Cc1nccn1Cc1ccccc1)c1cccc(OC(F)(F)F)c1)C(F)(F)F (centres unmarked) [Example 365]	> 100
OC(CN(Cc1cc(Cl)nc(Cl)c1)c1cccc(OC(F)(F)F)c1)C(F)(F)F (centres unmarked) [Example 366]	80
CCCCOc1ccc(NC(=O)N(CC(O)C(F)(F)F)c2cccc(OC(F)(F)F)c2)cc1 (centres unmarked) [Example 367, N′-(4-butoxyphenyl)-N-(3,3,3-trifluoro-2-hydroxypropyl)-N-[3-(trifluoromethoxy)phenyl]urea]	> 100
CSc1ccccc1NC(=O)N(CC(O)C(F)(F)F)c1cccc(OC(F)(F)F)c1 (centres unmarked) [Example 368]	> 100
O=C(Nc1ccc(-c2ccccc2)cc1)N(CC(O)C(F)(F)F)c1cccc(OC(F)(F)F)c1 (centres unmarked) [Example 369]	> 100
Cc1ccc(S(=O)(=O)NC(=O)N(CC(O)C(F)(F)F)c2cccc(OC(F)(F)F)c2)cc1 (centres unmarked) [Example 370]	> 100
Oc1cccc(N(Cc2cccc(OC(F)(F)C(F)F)c2)CC(O)C(F)(F)F)c1 (centres unmarked) [Example 371, 3-[[[3-(1,1,2,2-tetrafluoroethoxy)phenyl]methyl](3,3,3-trifluoro-2-hydroxypropyl)amino]phenol]	3.9
O=[N+]([O-])c1ccc(COc2cccc(N(Cc3cccc(OC(F)(F)C(F)F)c3)CC(O)C(F)(F)F)c2)cc1 (centres unmarked) [Example 375]	4.5
OC(CN(Cc1cccc(OC(F)(F)C(F)F)c1)c1cccc(OCc2c(F)c(F)c(F)c(F)c2F)c1)C(F)(F)F (centres unmarked) [Example 376]	3.3
OC(CN(Cc1cccc(OC(F)(F)C(F)F)c1)c1cccc(OCc2c(F)c(F)c(C(F)(F)F)c(F)c2F)c1)C(F)(F)F (centres unmarked) [Example 380]	11
OC(CN(Cc1cccc(OC(F)(F)C(F)F)c1)c1cccc(OCc2ccc(F)cc2C(F)(F)F)c1)C(F)(F)F (centres unmarked) [Example 381]	1.2
O=[N+]([O-])c1cccc(COc2cccc(N(Cc3cccc(OC(F)(F)C(F)F)c3)CC(O)C(F)(F)F)c2)c1 (centres unmarked) [Example 382]	2.3
N#Cc1cccc(COc2cccc(N(Cc3cccc(OC(F)(F)C(F)F)c3)CC(O)C(F)(F)F)c2)c1 (centres unmarked) [Example 383]	2.3
N#Cc1ccc(COc2cccc(N(Cc3cccc(OC(F)(F)C(F)F)c3)CC(O)C(F)(F)F)c2)cc1 (centres unmarked) [Example 384]	1.6
COc1c(F)c(F)c(COc2cccc(N(Cc3cccc(OC(F)(F)C(F)F)c3)CC(O)C(F)(F)F)c2)c(F)c1F (centres unmarked) [Example 386]	3.2
COC(=O)c1cccc(COc2cccc(N(Cc3cccc(OC(F)(F)C(F)F)c3)CC(O)C(F)(F)F)c2)c1 (centres unmarked) [Example 387]	2.2
COC(=O)c1ccc(COc2cccc(N(Cc3cccc(OC(F)(F)C(F)F)c3)CC(O)C(F)(F)F)c2)cc1 (centres unmarked) [Example 388]	3
OC(CN(Cc1cccc(OC(F)(F)C(F)F)c1)c1cccc(OCc2c(F)cc(F)cc2F)c1)C(F)(F)F (centres unmarked) [Example 392]	1.4
OC(CN(Cc1cccc(OC(F)(F)C(F)F)c1)c1cccc(OCc2c(F)cccc2F)c1)C(F)(F)F (centres unmarked) [Example 394]	3.1

More lines, now with the values ahead:

IC50 [µM]	Structure (SMILES)
1.1	OC(CN(Cc1cccc(OC(F)(F)C(F)F)c1)c1cccc(OCc2ccc(F)c(F)c2)c1)C(F)(F)F (centres unmarked) [Example 398]
1.5	OC(CN(Cc1cccc(OC(F)(F)C(F)F)c1)c1cccc(OCc2ccccc2Br)c1)C(F)(F)F (centres unmarked) [Example 403]
2.1	OC(CN(Cc1cccc(OC(F)(F)C(F)F)c1)c1cccc(OCc2ccccc2Cl)c1)C(F)(F)F (centres unmarked) [Example 404]
1.4	OC(CN(Cc1cccc(OC(F)(F)C(F)F)c1)c1cccc(OCc2cccc(F)c2)c1)C(F)(F)F (centres unmarked) [Example 406]
1.5	COc1cccc(COc2cccc(N(Cc3cccc(OC(F)(F)C(F)F)c3)CC(O)C(F)(F)F)c2)c1 (centres unmarked) [Example 407]
0.75	OC(CN(Cc1cccc(OC(F)(F)C(F)F)c1)c1cccc(OCc2cc(F)cc(F)c2F)c1)C(F)(F)F (centres unmarked) [Example 408]
0.61	OC(CN(Cc1cccc(OC(F)(F)C(F)F)c1)c1cccc(OCc2ccc(SC(F)(F)F)cc2)c1)C(F)(F)F (centres unmarked) [Example 409]
0.71	OC(CN(Cc1cccc(OC(F)(F)C(F)F)c1)c1cccc(OCc2ccc(F)c(C(F)(F)F)c2)c1)C(F)(F)F (centres unmarked) [Example 412]
17	OC(CN(Cc1cccc(OC(F)(F)C(F)F)c1)c1cccc(OCc2ccc(OCc3ccccc3)cc2)c1)C(F)(F)F (centres unmarked) [Example 413]
4.6	OC(CN(Cc1cccc(OC(F)(F)C(F)F)c1)c1cccc(OCc2ccc(-c3ccccc3)cc2)c1)C(F)(F)F (centres unmarked) [Example 414]
0.29	CCc1ccc(COc2cccc(N(Cc3cccc(OC(F)(F)C(F)F)c3)CC(O)C(F)(F)F)c2)cc1 (centres unmarked) [Example 415]
0.51	OC(CN(Cc1cccc(OC(F)(F)C(F)F)c1)c1cccc(OCc2ccc(C(F)(F)F)cc2)c1)C(F)(F)F (centres unmarked) [Example 416]
17	Cc1c(COc2cccc(N(Cc3cccc(OC(F)(F)C(F)F)c3)CC(O)C(F)(F)F)c2)cccc1[N+](=O)[O-] (centres unmarked) [Example 417]
0.19	Cc1ccc(COc2cccc(N(Cc3cccc(OC(F)(F)C(F)F)c3)CC(O)C(F)(F)F)c2)cc1C (centres unmarked) [Example 419]
0.27	OC(CN(Cc1cccc(OC(F)(F)C(F)F)c1)c1cccc(OCc2cccc(Cl)c2)c1)C(F)(F)F (centres unmarked) [Example 420]
0.49	OC(CN(Cc1cccc(OC(F)(F)C(F)F)c1)c1cccc(OCc2ccc(Br)cc2)c1)C(F)(F)F (centres unmarked) [Example 421]
0.92	OC(CN(Cc1cccc(OC(F)(F)C(F)F)c1)c1cccc(OCc2cc(Cl)cc(Cl)c2)c1)C(F)(F)F (centres unmarked) [Example 422]
0.13	Cc1cc(C)cc(COc2cccc(N(Cc3cccc(OC(F)(F)C(F)F)c3)CC(O)C(F)(F)F)c2)c1 (centres unmarked) [Example 423]
0.78	OC(CN(Cc1cccc(OC(F)(F)C(F)F)c1)c1cccc(OCc2ccc(Cl)cc2)c1)C(F)(F)F (centres unmarked) [Example 424]
0.34	Cc1cccc(COc2cccc(N(Cc3cccc(OC(F)(F)C(F)F)c3)CC(O)C(F)(F)F)c2)c1F (centres unmarked) [Example 425]
2.5	OC(CN(Cc1cccc(OC(F)(F)C(F)F)c1)c1cccc(OCc2cccc(Oc3ccccc3)c2)c1)C(F)(F)F (centres unmarked) [Example 426]
0.42	CC(C)c1ccc(COc2cccc(N(Cc3cccc(OC(F)(F)C(F)F)c3)CC(O)C(F)(F)F)c2)cc1 (centres unmarked) [Example 427]
6.8	OC(CN(Cc1cccc(OC(F)(F)C(F)F)c1)c1cccc(OCc2cccnc2)c1)C(F)(F)F (centres unmarked) [Example 428]
